Consider one compound from ChEMBL document CHEMBL5727696, “Tetrahydroisoquinoline derived PRMT5-inhibitors” (2020).

The assay in a line: Revised Biochemical Assay: Full-length PRMT5 enzyme (NCBI Reference sequence NP_006100.2) was co-expressed with Hiss-MEP50 in insect cells and purified via Nickel immobilized metal affinity and gel filtration chromatography (“the enzyme”).The 6 μL reactions are run in Greiner brand black 384-well low volume assay plates. All reactions contained assay buffer (phosphate buffered saline, 0.01% (v/v) Tween-20, 0.01% (w/v) albumin from chicken egg white, 1 mM Dithiothreitol, 1 μM peptide substrate, 1 μM S-Adenosyl methionine, and 15 ng/reaction enzyme, with the enzyme being omitted from negative control reactions. Compounds were added in a volume of 100 nL from dilution series prepared in DMSO, positive and negative control reactions receiving the same volume DMSO without compound. The plates were sealed with adhesive seals and incubated for 4 hours at 37 degree Celsius. Reaction progress was measured using the Transcreener™ EPIGEN methyltransferase assay (BellBrook Labs, Madison, Wis.) as recommended by the manufacturer. To each reaction 2 μL detection mix were added, containing coupling enzymes, fluorescence polarisation tracer, and AMP antibody. Plates were incubated for 90 minutes before being read on a PerkinElmer EnVision plate reader in fluorescence polarisation mode. (In general: SEC sorts molecules by how far they enter the pores of the column.)

Structures are written as SMILES.

As for `N#Cc1ccc(C(=O)NCCC(O)CN2CCc3ccccc3C2)cc1` (stereo unspecified), the concentration for half-maximal inhibition (IC50) (as a rule, the concentration that gives 50% inhibition) came to 3.98 µM.
